Reference: US6673749B1, “Use of phyllocladane diterpenoids for plant growth promotion and alleviation of growth retardant allelochemicals, and method therefor” (Council of Scientific and Industrial Research, priority 2002, dated 2004)

Legend:
Format in all cases: in vivo
Hordeum vulgare = assay: Seed germination and seedling shoot/root growth test in petridishes; details: control = 100%
Summary of the method: (§1)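 Ten seeds per 9.0 cm dish on filter paper wetted with 0.1, 0.01 or 0.001 μM compound solution (ethanol or acetone cosolvent, matched in controls), in triplicate. Incubated 9 days at 25.0±1.0 °C, 90% humidity, 4 hr light/day. Germination and shoot and root length expressed relative to control taken as 100%.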

[1] = system: Trigonella foenum-graecum; assay: as above; details: for Percent (%) germination of seeds in relation to control on 9th day after sowing / Percent (%) root growth of seedlings in relation to control on 9th day after sowing / Percent (%) shoot growth of seedlings in relation to control on 9th day after sowing: Trigonella foenum graecum, control = 100%
Summary of the method: as §1

Triticum aestivum = assay: as above; details: control = 100%
Summary of the method: as §1

Vigna radiata = assay: as above; details: Vigna radiata, control = 100%
Summary of the method: as §1

Hibiscus sabdariffa [2] = assay: Seed germination and seedling growth, comparison with GA3 (Example 4)
Protocol: (§2) 100 ml stalk solutions of 0.1 μM concentration were prepared by dissolving required amounts of various test compounds (depending upon their molecular weights) in minimum amount of ethanol or acetone and adding distilled water. From this stalk solution, 0.01 μM and 0.001 μM concentrations were prepared. Calliterpenone and calliterpenone di acetate was dissolved in 2.0 ml absolute ethanol (Merc), while; calliterpenone monoacetate, isopropylideno calliterpenone and trihydroxy calliterpenone were dissolved in 2.0 ml spectral grade acetone (Ranbaxy). The respective control test solutions of distilled water of each concentration also contained equal amount of absolute ethanol or acetone. For an assay, 10 seeds were placed on Whatman filter paper (moistened with 5.0 ml of test solution in a 9.0 cm diameter petridish (in triplicate). The pteridishes were incubated for 9 days in a germinator, maintained at 25.0±1.0° C. with 90% humidity and 4 hr light/day. At the end of incubation, observations were recorded on the seedlings in terms of germination, shoot and root growth. The data on the length of shoot and root of seedlings and number of seeds germinated in different concentrations of compounds were compared with the control, which was taken as 100%. The data thus obtained were presented in Table-1.
(§3) Effect of calliterpenone and its derivatives on seed germination and seedling growth in Hibiscus sabdariffa and Sesbania cannabina were measured in the similar way as these were measured in Example-1.

Sesbania cannabina [3] = assay: as above
Protocol: as §2, §3

Hibiscus sabdariffa [4] = assay: Antagonistic effect with Artemisia annua seed extract on germination and seedling growth; details: A. annua seed extract (1.3 g seeds/100 ml) alone or mixed 1:1 with 0.01 μm compound, control = 100%
Protocol: (§4) On the other hand, it is evident from Exp. 1-4 that phyllocladane diterpenenoids have produced germination and growth promoting activities on various plant species. To find out the combined effect of A. annua extract and phyllocladane diterpenoides on the germination and seedling growth of different plant species, 1:1 ratio of these compounds and A.annua extract were tested in the present experiment. For this, Hibiscus sabdariffa and Sesbania cannabina seeds were germinated in A.annua seed extract and solutions prepared by mixing this extract with 0.01 μm calliterpenone and calliterpenone mono-acetate respectively (Table 7). For the preparation of A.annua extract, 1.3 g seeds were soaked in 100 ml of distilled water for 24 hrs for testing on H. sabdariffa. Since, at this concentration, seeds of this species have shown 69% mortality which may be taken as good indicator. This effect was also recorded in S.cannabina. Since, in this case, seeds were almost half in weight as compared to the seeds of H. sabdariffa, accordingly, 0.65 g A. annua seeds were soaked in 100 ml of distilled water for 24 hrs to produce identical constraints in S. cannabina. For control, seeds were germinated in distilled water and all the observations were compared with it. […] Therefore, calliterpenone and its derivatives can be used to nullify the effects of other growth retardants/allelochemicals in the fields for their reclamation.

Sesbania cannabina [5] = assay: as above; details: A. annua seed extract (0.65 g seeds/100 ml) alone or mixed 1:1 with 0.01 μm compound, control = 100%
Protocol: as §4

CC(=O)OCC1(O)CC23CCC4C(C)(C)C(=O)CCC4(C)C2CCC1C3 (stereo not shown) [Calliterpenone Monoacetate, calliterpenone monoacetate]
Percent (%) germination of seeds in relation to control on 9th day after sowing (Hordeum vulgare; 0.001 μM): 100% | Percent (%) root growth of seedlings in relation to control on 9th day after sowing (Hordeum vulgare; 0.001 μM): 146% | Percent (%) shoot growth of seedlings in relation to control on 9th day after sowing (Hordeum vulgare; 0.001 μM): 113% | Percent (%) germination of seeds in relation to control on 9th day after sowing (Hordeum vulgare; 0.01 μM): 100% | Percent (%) root growth of seedlings in relation to control on 9th day after sowing (Hordeum vulgare; 0.01 μM): 114% | Percent (%) shoot growth of seedlings in relation to control on 9th day after sowing (Hordeum vulgare; 0.01 μM): 117% | Percent (%) germination of seeds in relation to control on 9th day after sowing (Hordeum vulgare; 0.1 μM): 100% | Percent (%) root growth of seedlings in relation to control on 9th day after sowing (Hordeum vulgare; 0.1 μM): 124% | Percent (%) shoot growth of seedlings in relation to control on 9th day after sowing (Hordeum vulgare; 0.1 μM): 118% | Percent (%) germination of seeds in relation to control on 9th day after sowing ([1]; 0.001 μM): 113% | Percent (%) root growth of seedlings in relation to control on 9th day after sowing ([1]; 0.001 μM): 131% | Percent (%) shoot growth of seedlings in relation to control on 9th day after sowing ([1]; 0.001 μM): 135% | Percent (%) germination of seeds in relation to control on 9th day after sowing ([1]; 0.01 μM): 113% | Percent (%) root growth of seedlings in relation to control on 9th day after sowing ([1]; 0.01 μM): 95% | Percent (%) shoot growth of seedlings in relation to control on 9th day after sowing ([1]; 0.01 μM): 134% | Percent (%) germination of seeds in relation to control on 9th day after sowing ([1]; 0.1 μM): 113% | Percent (%) root growth of seedlings in relation to control on 9th day after sowing ([1]; 0.1 μM): 81% | Percent (%) shoot growth of seedlings in relation to control on 9th day after sowing ([1]; 0.1 μM): 133% | Seed germination as compared to 100% in control ([1]; Trigonella foenum-graceum, concentration not specified): 113% | Percent (%) germination of seeds in relation to control on 9th day after sowing (Triticum aestivum; 0.001 μM): 100% | Percent (%) root growth of seedlings in relation to control on 9th day after sowing (Triticum aestivum; 0.001 μM): 145% | Percent (%) shoot growth of seedlings in relation to control on 9th day after sowing (Triticum aestivum; 0.001 μM): 106% | Percent (%) germination of seeds in relation to control on 9th day after sowing (Triticum aestivum; 0.01 μM): 100% | Percent (%) root growth of seedlings in relation to control on 9th day after sowing (Triticum aestivum; 0.01 μM): 102% | Percent (%) shoot growth of seedlings in relation to control on 9th day after sowing (Triticum aestivum; 0.01 μM): 107% | Percent (%) germination of seeds in relation to control on 9th day after sowing (Triticum aestivum; 0.1 μM): 100% | Percent (%) root growth of seedlings in relation to control on 9th day after sowing (Triticum aestivum; 0.1 μM): 88% | Percent (%) shoot growth of seedlings in relation to control on 9th day after sowing (Triticum aestivum; 0.1 μM): 109% | Percent (%) germination of seeds in relation to control on 9th day after sowing (Vigna radiata; 0.001 μM): 100% | Percent (%) root growth of seedlings in relation to control on 9th day after sowing (Vigna radiata; 0.001 μM): 104% | Percent (%) shoot growth of seedlings in relation to control on 9th day after sowing (Vigna radiata; 0.001 μM): 138% | Percent (%) germination of seeds in relation to control on 9th day after sowing (Vigna radiata; 0.01 μM): 150% | Percent (%) root growth of seedlings in relation to control on 9th day after sowing (Vigna radiata; 0.01 μM): 85% | Percent (%) shoot growth of seedlings in relation to control on 9th day after sowing (Vigna radiata; 0.01 μM): 130% | Percent (%) germination of seeds in relation to control on 9th day after sowing (Vigna radiata; 0.1 μM): 200% | Percent (%) root growth of seedlings in relation to control on 9th day after sowing (Vigna radiata; 0.1 μM): 67% | Percent (%) shoot growth of seedlings in relation to control on 9th day after sowing (Vigna radiata; 0.1 μM): 123% | Enhancement in germination (in words) (Hibiscus sabdariffa [2]): did not produce any enhancement in germination | Seed Ger. (Hibiscus sabdariffa [2]; 0.001 μM): 3 | Root Growth (mm) 3rd Day (Hibiscus sabdariffa [2]; 0.001 μM): 16.3 mm | Shoot growth 3rd Day (Hibiscus sabdariffa [2]; 0.001 μM): 28.8 | Root Growth (mm) 6th Day (Hibiscus sabdariffa [2]; 0.001 μM): 19.3 mm | Shoot growth 6th Day (Hibiscus sabdariffa [2]; 0.001 μM): 85.8 | Root Growth (mm) 9th Day (Hibiscus sabdariffa [2]; 0.001 μM): 24.8 mm | Shoot growth 9th Day (Hibiscus sabdariffa [2]; 0.001 μM): 91.6 | Seed Ger. (Hibiscus sabdariffa [2]; 0.01 μM): 2 | Root Growth (mm) 3rd Day (Hibiscus sabdariffa [2]; 0.01 μM): 17.5 mm | Shoot growth 3rd Day (Hibiscus sabdariffa [2]; 0.01 μM): 33.5 | Root Growth (mm) 6th Day (Hibiscus sabdariffa [2]; 0.01 μM): 18.3 mm | Shoot growth 6th Day (Hibiscus sabdariffa [2]; 0.01 μM): 67.5 | Root Growth (mm) 9th Day (Hibiscus sabdariffa [2]; 0.01 μM): 21.3 mm | Shoot growth 9th Day (Hibiscus sabdariffa [2]; 0.01 μM): 75.2 | Seed Ger. (Hibiscus sabdariffa [2]; 0.1 μM): 0 | Root growth as compared to respective control (Sesbania cannabina [3]; 0.001 μM): 114% | Seed Ger. (Sesbania cannabina [3]; 0.001 μM): 3 | Shoot growth as compared to respective control (Sesbania cannabina [3]; 0.001 μM): 109% | Root Growth (mm) 3rd Day (Sesbania cannabina [3]; 0.001 μM): 40.0 mm | Shoot growth 3rd Day (Sesbania cannabina [3]; 0.001 μM): 44.0 | Root Growth (mm) 6th Day (Sesbania cannabina [3]; 0.001 μM): 40.0 mm | Shoot growth 6th Day (Sesbania cannabina [3]; 0.001 μM): 110.0 | Root Growth (mm) 9th Day (Sesbania cannabina [3]; 0.001 μM, 9th day): 57.0 mm | Root growth as compared to GA3 taken as 100% (Sesbania cannabina [3]; 0.001 μM, 9th day): 143% | Shoot growth 9th Day (Sesbania cannabina [3]; 0.001 μM, 9th day): 120 | Seed Ger. (Sesbania cannabina [3]; 0.01 μM): 3 | Root Growth (mm) 3rd Day (Sesbania cannabina [3]; 0.01 μM): 28.3 mm | Shoot growth 3rd Day (Sesbania cannabina [3]; 0.01 μM): 20.0 | Root Growth (mm) 6th Day (Sesbania cannabina [3]; 0.01 μM): 28.4 mm | Shoot growth 6th Day (Sesbania cannabina [3]; 0.01 μM): 57.8 | Root Growth (mm) 9th Day (Sesbania cannabina [3]; 0.01 μM, 9th day): 45.1 mm | Shoot growth 9th Day (Sesbania cannabina [3]; 0.01 μM, 9th day): 78.2 | Seed Ger. (Sesbania cannabina [3]; 0.1 μM): 2 | Root Growth (mm) 3rd Day (Sesbania cannabina [3]; 0.1 μM): 5.5 mm | Shoot growth 3rd Day (Sesbania cannabina [3]; 0.1 μM): 11.0 | Root Growth (mm) 6th Day (Sesbania cannabina [3]; 0.1 μM): 7.5 mm | Shoot growth 6th Day (Sesbania cannabina [3]; 0.1 μM): 50.0 | Root Growth (mm) 9th Day (Sesbania cannabina [3]; 0.1 μM, 9th day): 23.0 mm | Shoot growth 9th Day (Sesbania cannabina [3]; 0.1 μM, 9th day): 66.0 | Germination as compared to GA3 treatments (Sesbania cannabina [3]; concentration not given): 150% | Germination as compared to its control (Sesbania cannabina [3]; concentration not given): 150% | Percent (%) germination in relation to control on the 9th day after sowing (Hibiscus sabdariffa [4]): completely checked the inhibitory effect | Percent (%) seedling growth, Root, in relation to control on the 9th day after sowing (Hibiscus sabdariffa [4]): 172% | Percent (%) seedling growth, Stem, in relation to control on the 9th day after sowing (Hibiscus sabdariffa [4]): 169% | Percent (%) germination in relation to control on the 9th day after sowing (Sesbania cannabina [5]): completely checked the inhibitory effect | Percent (%) seedling growth, Root, in relation to control on the 9th day after sowing (Sesbania cannabina [5]): 175% | Percent (%) seedling growth, Stem, in relation to control on the 9th day after sowing (Sesbania cannabina [5]): 175%
